Eight compounds from patent publication US20200384072A1, “THERAPY OF IONIZING RADIATION-INDUCED DISORDERS” (SCK-CEN, priority 2019, published 2020) can be followed below.

The subject of assay [1] is RBE4 cells. The assay is described as follows: γ-H2AX counts after local 3×3 mm X-ray irradiation (irradiated and bystander zones), RBE4 cells. The following applies: 1 Gy, 3 h post-irradiation, Cbx 50 μM, Gap26 161 μM, TAT-Gap19 200 μM, Xestospongin C 5 μM. The class given is cell-based, rat. The procedure: (§1) A defined area of the cell culture dishes were exposed to X-rays (1Gy or 20 Gy) by using a small animal radiation research platform (SARRP, Xstrahl, 220 kV, 13 mA), making use of a 3×3 mm collimator. Whole dish irradiation was done using a 10×10 cm broad-beam collimator, while localized Irradiation was performed with a 3×3 mm collimator. A Gafchromic RTQA2 film, with a sensitivity of 0.02 Gy, was placed underneath the cell dishes in order to delineate the irradiated zone.
(§2) Cells were fixed for 25 min with 4% formaldehyde (VWR) and blocked for 30 min with blocking buffer (5% normal goat serum, 1% bovine serum albumin (BSA), 0.2% Triton X-100 in PBS D+). Overnight incubation with primary antibody (1/500 anti-γ-H2AX in dilution buffer, 1/10 blocking buffer in PBS D+) was followed by a 1 h incubation with 1/400 XX-biotin-goat-anti-mouse antibody in dilution buffer, followed by a 1 h incubation with 1/400 streptavidin-alexa488 in PBS D+. Nuclei were stained with 1 μg/mL DAPI in PBS D+ for 10 min and cells were kept in PBS D+ supplemented with NaN3 at 4° C. All steps except the overnight incubation which was carried out at 4° C., were carried out at room temperature and cell cultures were rinsed thoroughly with PBS D+ between all incubation steps. Imaging was performed with an automated BD Pathway 435 imaging system (10× objective, 10×10 montage resulting in an overall image size of 8.5×6.5 mm). We then quantified the number of γ-H2AX-foci positive nuclei in the directly irradiated and bystander areas and expressed the count as a percentage relative to the number of nuclei and subtracted the percentage of background γ-H2AX signal in non-irradiated paired control cultures for each experiment. For counting γ-H2AX foci, images were thresholded to remove background pixel noise below the foci level. Where applicable, results were normalized against vehicle (bar charts with a 100% vehicle bar without statistical variability or a horizontal line).

The test system of assay [2] is RBE4 cells. The assay is described as follows: Cytosolic Ca2+ imaging after medium transfer from irradiated to recipient RBE4 cells. The class given is cell-based, rat. The following applies: for [Ca2+]i responses in recipient cells: inhibitor added to the recipient cells, PPADS 50 μM; for AUC of Ca2+ transients in recipient bystander cells: inhibitor added to the irradiated culture 30 min before irradiation, NALC 1 mM. The procedure: Cells were seeded on glass coverslips (18 mm 0) coated with 3.5 μg/cm^2 Corning cell-tak (VWR, Leuven, Belgium) and ester loaded for 45 min with 10 μM Fluo-3-AM in HBSS-HEPES supplemented with 1 mM of probenecid and 0.01% of pluronic F127 at room temperature followed by de-esterification over 15 min. Imaging was performed using an inverted fluorescence microscope equipped with a ×40 oil immersion objective and an EM-CCD camera (QuantEM™ 512SC CCD camera, Photometrics, Tucson, Ariz.). For direct Ca^2+ measurements the loaded cells were irradiated and transferred to the microscopy stage. For medium transfer, the loaded cells were superfused for 1 min with HBSS-Hepes (1 mM), followed by 4 min with HBSS-Hepes conditioned by irradiated cultures. Fluorescence intensity changes in the cells were analyzed with custom-developed FluoFrames software (L. Leybaert, Ghent, Belgium). Ca^2+ changes were quantified as the area under the curve (AUC) of the Ca^2+ traces.

The subject of assay [3] is RBE4 cells. The assay is described as follows: γ-H2AX counts in electroporation-loaded bystander zone, RBE4 cells. The class given is cell-based, rat. The following applies: BH4-Bcl-2 20 μM, BAPTA 60 μM, SOD 100 μg/mL (3 μM). The procedure: as §2
Cells were grown to near confluency on 4-well plates coated with collagen. Cell monolayer cultures were washed three times with HBSS-Hepes 25 mM (pH 7.2-7.4) and subsequently three times with a low conductivity electroporation buffer (4.02 mM KH2PO4, 10.8 mM K2HPO4, 1.0 mM MgCl2, 300 mM sorbitol, 2.0 mM Hepes, pH 7.4). They were placed 400 μm underneath a two-wire Pt-Ir electrode on the microscopic stage and electroporated in the presence of a tiny amount of electroporation solution (10 μl) containing 100 μg/mL SOD, 60 μM BAPTA or 20 μM BH4-Bcl2 combined with 100 μM 10 kDa DTR. […]

For assay [4], the system named is primary brain microvascular endothelial cells (pBMECs). The assay is described as follows: γ-H2AX counts after local 3×3 mm X-ray irradiation (irradiated and bystander zones), pBMECs. The following applies: 1 Gy, 3 h post-irradiation. The class given is cell-based, mouse. The procedure:
Cortices, from 10-12 week old mice, were isolated by removing cerebellum, striatum, optic nerves, brain white matter, outer vessels and meninges. After homogenization with a Dounce homogenizer in WBB (Washing Buffer B: HMS, 10 mM Hepes, 0.35 g/L NaHCO3, 0.1% BSA), the homogenate was mixed with 30% dextran in WBB and centrifuged at 3000×g for 25 min at 4° C. The pellet containing the vascular component was then resuspended in WBB and filtered through a 60 μm NY60 Nylon Net Filter (Millipore, Darmstadt, Germany). Following centrifugation at 1000×g for 7 min at room temperature, the pellet was digested in collagenase/dispase supplement with DNase I (Roche Diagnostics, Vilvoorde, Belgium) and TLCK (Tosyl, Lysin chloromethyl ketone, sigma-aldrich) for 33 min at 37° C. in a shaking water bath. The digested capillary suspension was then seeded after multiple washing steps on wells coated with matrigel or glass coated with Corning Cell-Tak (VWR, Leuven, Belgium). For the isolation of intact capillaries the protocol was aborted just before the digestion step.
as §1, §2

In assay [5] the test system is RBE4 cells. The assay is described as follows: Irradiation-induced ATP release, RBE4 cells. The following applies: broad-beam 1 Gy, 5 min post-irradiation, BAPTA-AM 10 μM, NALC 1 mM, c-PTIO 100 μM. The class given is cell-based, rat. The procedure:
ATP was measured using a luciferin-luciferase assay kit (Sigma-Aldrich) in combination with a luminometer plate reader (Victor3 1420 multi label counter; Perkin Elmer, Zaventem, Belgium).
Extracellular ATP measurements were initially carried out at different time-points post-irradiation, the effect of blockers on ATP release was tested at the 5 min post-irradiation time-point (time of maximum ATP release).

Assay [6] deals with RBE4 cells. Put plainly: Irradiation-induced propidium iodide dye uptake, RBE4 cells. The class given is cell-based, rat. The following applies: 1 Gy, 5 min post-irradiation. The procedure:
Cells were grown to near confluency in 4-well plates. Cultures were incubated with 1 mM propidium iodide (PI) and 200 μM 10 kDa dextran-FITC before focal irradiation and dye uptake was measured 5 min post-irradiation by measuring the fluorescence intensity of both dyes following image acquisition with a BD pathway 435 imaging system.

Entries after “also recorded” stand apart in the source; their conditions may differ.

Regarding `Cc1nc(N=Nc2ccc(S(=O)(=O)O)cc2S(=O)(=O)O)c(COP(=O)(O)O)c(C=O)c1O` [PPADS, Pyridoxalphosphate-6-azopehyl-2′,4′-disolfonic acid], the “γ-H2AX counts in the bystander zone (normalized to vehicle)” value in the assay with RBE4 cells [1] is recorded as “significantly reduced γ-H2AX scores”. Moreover, in the assay with RBE4 cells [2], the “[Ca2+]i responses in recipient cells” value is “inhibited the [Ca^2]i responses”.
For `C1CCC[C@H]2CCCN3CC[C@@H](CCCCCC[C@@H]4CCCN5CC[C@@H](CC1)O[C@@H]45)O[C@@H]23` [Xestospongin C], the “γ-H2AX counts in the bystander zone (normalized to vehicle)” value in the assay on RBE4 cells [1] is on record as “significantly reduced γ-H2AX counts in the bystander zone”.
With “BH4-Bcl-2: IP3 receptor blocking peptide (amino acids 6-30 of Bcl-2; MW 3.6 kDa) (RTGYDNREIVMKYIHYKLSQRGYEW; UniProt P10415 6-30, looked up, fragment)”, the “γ-H2AX scores in the electroporation-loaded bystander zone (normalized to vehicle)” value is listed as “strongly reduced the γ-H2AX scores” in the assay with RBE4 cells [3] and “significantly decreased γ-H2AX counts” in the assay with RBE4 cells [3] (listed as BH4-Bcl2).
Consider “Gap26: connexin mimetic peptide, amino acids 64-76 from the first extracellular loop of Cx43 (SEQ ID NO: 1) (VCYDKSFPISHVR; Synthetic peptide_Gap26)”, for which, in the assay with RBE4 cells [1], the “γ-H2AX counts in the bystander zone (normalized to vehicle)” value is “significantly inhibited” and the “γ-H2AX counts in the irradiated zone (normalized to vehicle)” value is given as “significantly inhibited”. Also, the “γ-H2AX counts in the irradiated area (normalized to vehicle)” value in assay [4] is listed as “only had effect in the bystander zone”. In the assay with RBE4 cells [5], the “irradiation-induced ATP release” value was “inhibited”. For the same compound, in the assay on RBE4 cells [6], the “PI uptake in the bystander area” value was “significantly reduced; also recorded: inhibited” and the “PI uptake in the irradiated area” value is on record as “significantly reduced; also recorded: inhibited”. Also, in the assay with RBE4 cells [2], the “AUC of Ca2+ transients in recipient bystander cells” value is reported as “reduced the area under the curve (AUC)” and the “[Ca2+]i responses in recipient cells” value is “inhibited the [Ca^2]i responses”.
Take `CC1(C)N([O])C(c2ccc(C(=O)O)cc2)=[N+]([O-])C1(C)C` [c-PTIO]: the “γ-H2AX counts in the bystander zone (normalized to vehicle)” value is on record as “less clear responses” in the assay with RBE4 cells [1], “significantly reduced the γ-H2AX scores in both areas” in assay [4] and “almost zero” in assay [4] (listed as C-PTIO). For the same compound, in the assay with RBE4 cells [1], the “γ-H2AX counts in the irradiated zone (normalized to vehicle)” value was “less clear responses”. Also, the “γ-H2AX counts in the irradiated area (normalized to vehicle)” value in assay [4] is “significantly reduced the γ-H2AX scores in both areas”. In addition, the “irradiation-induced ATP release” value with RBE4 cells [5] is listed as “strongly reduced irradiation-induced ATP release”; in the assay on RBE4 cells [5] (listed as C-PTIO), “inhibited irradiation-induced ATP release”.
Regarding `CC(=O)N[C@@H](CS)C(=O)O` [NALC, N-acetyl-L-cystein], in the assay on RBE4 cells [1], the “γ-H2AX counts in the bystander zone (normalized to vehicle)” value is listed as “less clear responses” and the “γ-H2AX counts in the irradiated zone (normalized to vehicle)” value was “less clear responses”. Further, in assay [4], the “γ-H2AX counts in the bystander zone (normalized to vehicle)” value was “significantly reduced the γ-H2AX scores in both areas; also recorded: almost zero” and the “γ-H2AX counts in the irradiated area (normalized to vehicle)” value is given as “significantly reduced the γ-H2AX scores in both areas”. Besides, in the assay on RBE4 cells [5], the “irradiation-induced ATP release” value was “inhibited irradiation-induced ATP release; also recorded: significantly decreased ATP release”. Moreover, the “AUC of Ca2+ transients in recipient bystander cells” value in the assay on RBE4 cells [2] was “reduced the area under the curve (AUC)”.
With `CC(=O)OCOC(=O)CN(CC(=O)OCOC(C)=O)c1ccccc1OCCOc1ccccc1N(CC(=O)OCOC(C)=O)CC(=O)OCOC(C)=O` [BAPTA-AM, 1.2-bis-(2-aminophynoxy)-ethane-N,N,N′,N′,tetraacetic acid acetoxy methyl ester], in the assay with RBE4 cells [1], the “γ-H2AX counts in the bystander zone (normalized to vehicle)” value was “less clear responses” and the “γ-H2AX counts in the irradiated zone (normalized to vehicle)” value was “less clear responses”. In addition, in assay [4], the “γ-H2AX counts in the bystander zone (normalized to vehicle)” value is reported as “significantly reduced the γ-H2AX scores in both areas; also recorded: almost zero” and the “γ-H2AX counts in the irradiated area (normalized to vehicle)” value was “significantly reduced the γ-H2AX scores in both areas”. In addition, the “irradiation-induced ATP release” value in the assay with RBE4 cells [5] is listed as “inhibited irradiation-induced ATP release; also recorded: significantly decreased ATP release”.
`O=C([O-])CN(CC(=O)[O-])c1ccccc1OCCOc1ccccc1N(CC(=O)[O-])CC(=O)[O-].[K+].[K+].[K+].[K+]` [BAPTA]: the “γ-H2AX scores in the electroporation-loaded bystander zone (normalized to vehicle)” value with RBE4 cells [3] was “significantly decreased γ-H2AX counts; also recorded: strongly reduced the γ-H2AX scores”.
